# What was measured:
# [1] = test system: glucose uptake in cultured cells; assay: In vitro glucose uptake / hexose transport in cultured cells with xylose derivatives (Table 2); format: cell-based; conditions: for EC50 / ECmax: EC = Effective concentration
# Method: Table 2 summarizes in vitro results obtained with some of these newly synthesized xylose derivatives.
# (§1) Uptake assay of the tritiated glucose analogue, 2-deoxy-D-glucose, is routinely performed as described in [Sasson, S. and Cerasi, E. (1986) J. Biol. Chem. 261, 16827-16833].
# All new compounds are screened and tested first in various insulin-sensitive cell cultures used routinely in the laboratory (skeletal muscle and adipose cell lines). In addition these drugs were tested in non-insulin-sensitive cells such as primary cultures of bovine and porcine vascular endothelial and smooth muscle cells. Active compounds were tested ex-vivo on isolated rat soleus muscles. All cell cultures and tissues were maintained under hyperglycemic condition prior to the addition of the test compounds. Dose-response and time-course experiments determine which of the derivatives are subsequently tested in animal models. For each potent compound the total cell content and plasma membrane abundance of GLUT-1 and GLUT-4 was determined, as described above. The same biotinylation technique was employed to determine the total and plasma membrane content of both transporters in isolated mouse or rat soleus muscles treated with potent compounds.
# [2] = test system: streptozotocin-diabetic C57/black mice; assay: Anti-hyperglycemic activity in streptozotocin-diabetic mice; format: in vivo, mouse
# Method: FIG. 12: Anti-hyperglycemic activity of EH-36 in streptozotocin-diabetic mice. Mice were treated with EH-36 or the vehicle alone (sesame oil, bold lines), and their blood glucose levels determined at the indicated time intervals. Male C57/black mice were made hyperglycemic by 5 repeated daily injections of streptozotocin (i.p. 50 mg/Kg body weight). EH-36 was dissolved in sesame oil (4 mg/ml) and injected s.c (400 μg) twice a day.
# FIG. 13: Anti-hyperglycemic activity of EH-36 in streptozotocin-diabetic mice. Mice were treated with EH-36 (as described in the legend to FIG. 12) or the vehicle alone (sesame oil, bold lines), and their blood glucose levels were determined at the indicated time intervals. C57/black mice were made diabetic as described in the legend to FIG. 12.
# EH-36 was tested for its potential anti-hyperglycemic activity in an animal model of diabetes. Male C57/black mice were made diabetic by daily i.p. injections of streptozotocin (50 mg/Kg) for 5 days. After 10 days the fasting blood glucose of these mice was above 300 mg/dL as compared to 80-130 mg/dL of control mice. Unlike a single and high dose injection of streptozotocin, which produces an animal model for Type 1 diabetes, the repeated low-dose injections produce a model that more closely resembles Type 2 diabetes. (Fraser, R. B., Rowden, G., Colp, P, And Wright, J. R. Jr.: Immunophenotyping of insulitis in control and essential fatty aid deficient mice treated with multiple low-dose streptozotocin. Diabetologia, 40:1263-1268, 1997).
# EH-36 was dissolved in sesame oil (4 mg/ml) and injected into Streptozotocin-diabetic mice (s.c. 400 μg, twice a day at 08 and 18 hrs). Blood was withdrawn from the tip of the tails and glucose levels were measured with a glucometer.
# [3] = test system: non-diabetic mice; assay: Blood glucose level of non-diabetic mice; conditions: mouse, in vivo
# [4] = test system: streptozotocin-diabetic mice; assay: Glucose tolerance test (GTT) of diabetic mice; format: in vivo, mouse
# Method: FIG. 14: Glucose tolerance test (GTT) of diabetic mice treated with sesame oil or EH-36 for 9 days, as described in the legend to FIG. 12. On the morning of the 10th day and following an overnight fast the mice received glucose (2 gr/Kg body weight) by i.p. injection, Blood glucose was determined for 3 hr at 30 min intervals. The glucose data were plotted for each animal and the area under the curve (AUC) was calculated.
# In another set of experiments similar diabetic mice were treated with the oil or EH-36 (1.5 mg, s.c. twice a day) for 9 days. On the morning of the 10th day and following an overnight fast the mice were subjected to a glucose tolerance test (GTT). The mice received D-glucose by i.p. injections (2 gr/kg body weight). Blood glucose as monitored for 3 hr at 30 min intervals.
# [5] = Serum level of EH-36 in rats by HPLC; format: in vivo, rat; conditions: 16 mg/day in sesame oil s.c. for 3 days, serum on fourth day, preliminary
# Method: Extract aliquots (30 μl) were analyzed by reverse phase HPLC in a 150×4.6 mm, 3μ ODS Hypersil® column (Thermohypersil-Keystone, Bellfonte, Pa.) connected to an L-4200 UV-Vis detector (272 nm). Elution was at a flow rate of 1.5 ml/min with water and acetonitrile gradient: the initial solvent mixture was 30% water:70% acetonitrile:. A convex gradient over 20 min then followed to 100% acetonitrile.
# The pharmacokinetic parameters of EH-36 were determined by the following procedure. Rats (3 per group per time point) were anesthetized and their blood collected from the portal vein. The serum was separated and extracted with chloroform. The extract was dried and redissolved in a small volume of chloroform and separated by HPLC and identified by UV absorption. The animals were treated with 16 mg/day (in sesame oil, s.c.) for 3 days. On the fourth day the animals were sacrificed and serum was isolated, extracted and separated by HPLC. There was a distinct peak of EH-36 corresponding to 1.01 mg/ml EH-36. To verify that this peak corresponds to EH-36 a known quantity of this compound was added to a serum sample taken from the EH-36-treated rats. Following extraction and HPLC analysis the only peak that was intensified was that corresponding to EH-36. […]
# [6] = Solubility of EH-36; format: physicochemical; conditions: e.g., DMSO, ethanol and oil
# [7] = test system: L6 myotubes; assay: dGlc uptake assay in L6 myotubes; format: cell-based, rat; conditions: for effect of PI3-kinase inhibitor LY-249002 on the substance's stimulation of hexose transport: 60 μM inhibitor, 23.0 mM glucose (FIG. 11A), EH-40 data not shown
# Method: (§2) FIG. 10: Western blot depicting effect of 3-O-propyl-D-xylose (EH-114), and 1,3-O-dimethylxylopyranoside (EH-101) on the total cell content and plasma membrane abundance of GLUT-4 in the absence or presence of insulin. L6 myotubes were maintained for 48 hr at 23 mM Glucose. The cells were than washed and received fresh medium containing the indicated additions and incubated for additional […]. Insulin was added during the last 30 min of incubation before the dGlc uptake assay.
# FIG. 11A: Effect of LY-249002, a PI3-kinase inhibitor, on insulin, D-xylose, EH-101 and EH-114-mediated glucose uptake. L6 myotubes were treated as described in the legend to FIG. 10. The glucose concentration in the culture medium was 23.0 mM. The concentration of LY-294002 was 60 μM. At the end of incubation the cells were taken for the standard dGlc uptake assay. Mean±SEM, n=3.
# (§3) GLUT-1 and GLUT-4 mediate glucose entry into L6 myotubes. It is established that GLUT-4 is translocated effectively and rapidly to the plasma membrane upon insulin treatment. The inventors looked at the effect of 3-O-propyl-D-xylose EH-114) and 1,3-O-dimethylxylopyranoside (EH-101) on the total cell content and plasma membrane abundance of these transporters in the absence or presence of insulin. L6 myotubes were maintained at 5.0 or 23.0 mM glucose for 48 hr and EH-114 and EH-101 were present during the last 24 hr. The cells were then taken for the standard [^3H]-2-deoxy-D-glucose uptake assay and for the biotinylation procedure for determining the amount of GLUT-1 and GLUT-4 in the plasma membrane. High glucose levels decreased the hexose transport rate by ˜50%. Insulin augmented the transport nearly 2-fold in both cases. EH-114 and EH-101 increased the transport rate 2-3-fold in the absence of insulin. Together with insulin the uptake rate was increased nearly 3-fold.
# The inventors also tested the hypothesis that the active D-xylose derivatives augment the hexose transport capacity in L6 myotubes by translocating GLUT-4 to the plasma membrane not via the common insulin-regulated pathway. For this experiment, a selective inhibitor of the enzyme PI3-kinase, LY-249002, which is a key enzyme in the cellular transduction mechanism of insulin, was utilized. […] These findings also agree well with the longer onset of action of these derivatives as compared to the rapid action of insulin. Similar results were obtained when LY-249002 was present together with the derivatives throughout the entire incubation period.
# as §1
# [8] = test system: GLUT-4; assay: Cell surface biotinylation and western blot of GLUT-4 in L6 myotubes; format: cell-based, rat; conditions: for translocation of GLUT-4 to the plasma membrane: L6 myotubes, xylose derivatives in the absence of insulin, insulin 500 nM (FIG. 10)
# Method: as §2, §3
# Surface biotinylation of the cells was performed as previously described [Sasson et al (1997), Diabetologia, 40, 30-398].
# [9] = test system: PKB; assay: PKB phosphorylation immunoblot in L6 myotubes; format: cell-based, rat; conditions: 23.0 mM glucose; 100 nM insulin, 20 mM xylose, 5 mM EH-114 or 250 μM EH-40, up to 24 hrs (FIG. 11B)
# Method: FIG. 11B: Effects of insulin D-xylose and xylose derivatives on PKB phosphorylation. L6 myotubes were maintained at 5.5 mM or 23.0 mM glucose. The latter were treated with 100 nM insulin, 20 mM xylose, 5 mM EH-114 or 250 μM EH-40 up to 24 hrs. At the indicated times treated myotubes were collected, homogenized and lysed and the soluble protein fraction was isolated. The control myotubes were collected at the end of the 24 hr incubation period. Equal amounts of proteins of the various treated myotubes were separated on SDS-PAGE and immunoblotted with a specific antibody against phospho-Axt1/PKBα (Ser473). In order to test whether xylose derivative activate insulin transduction elements downstream of PI3K, the inventors tested the state of PKB phosphorylation, as shown in FIG. 11B.
# [10] = test system: GLUT-1; assay: Cell surface biotinylation and western blot of GLUT-1 in L6 myotubes; format: cell-based, rat; conditions: data not shown
# Method: as §3
# FIG. 10 presents the western blots showing the results of such a representative experiment. Under hyperglycemic conditions the total cell content of GLUT-4 was reduced as well as its plasma membrane abundance [lanes 1 & 2 for Total cell content and PM (plasma membrane) fractions]. […]
compound,measurement,setting,value
"CCSC(SCC)[C@@H]1OC(c2ccccc2)O[C@@H]2COC(c3ccccc3)O[C@@H]21 (stereo partly drawn) [EH-36, 2,4:3,5 di-O-benzylidene-D-xylose-diethyl-dithioacetal]",Fold Increase of Glucose Uptake,[1],2.0 fold
same,onset of action,[1],24 to 48 h
same,time to maximal stimulatory effects,[1],≤ 48 h
same,EC50,[1],0.002 mM
same,ECmax,[1],10 µM
same,potency relative to D-xylose,[1]; more potent than xylose,2000 fold
same,blood glucose level,[2]; 400 μg s.c. in sesame oil twice a day (FIG. 13),reduced their blood glucose level to the normoglycemic range
same,duration of effect after treatment,[2]; after the last injection,at least 3 weeks
same,blood glucose levels after treatment stopped,[2]; left untreated for four additional weeks after 9-day injection,250 to 350 mg/dL
same,appearance of animals after treatment stopped,[2]; untreated for four additional weeks,looked normal and healthy
same,blood glucose level of non-diabetic mice,[3],Neither EH-36 nor the vehicle changed significantly
same,average AUC of GTT,"[4]; 1.5 mg s.c. twice a day for 9 days, glucose 2 gr/kg i.p. on 10th day, ±SEM",6.42±1.62 mg glucose/ml/hr
same,improvement of glucose clearance,[4]; following a 9-day treatment,~50%
same,serum concentration,[5],1.01 mg/mL
same,solubility,[6],very limited solubility in most common organic solvents
"CCCO[C@@H]([C@H](O)CO)[C@@H](O)C=O [EH-114, 3-O-propyl-D-xylose]",Fold Increase of Glucose Uptake,[1],2.6 fold
same,EC50,[1],3 mM
same,ECmax,[1],4500 µM
same,duration of activity following removal from the culture media,[1]; after being washed from cell cultures,24 h
same,effect of PI3-kinase inhibitor LY-249002 on the substance's stimulation of hexose transport,[7],failed to affect
same,increase of uptake rate together with insulin,"[7]; L6 myotubes, compound during last 24 hr plus insulin",~3 fold
same,total cell content of GLUT-4,[8]; L6 cells exposed to 23.0 mM glucose (FIG. 10),increased the total content of the transporter
same,translocation of GLUT-4 to the plasma membrane,[8],induced significant translocation of GLUT-4 to the plasma membrane
same,PKB phosphorylation,[9],failed to induce significant phosphorylation
"Insulin: insulin, hormone used as positive control for glucose transport stimulation [reference compound]",effect of PI3-kinase inhibitor LY-249002 on the substance's stimulation of hexose transport,[7],eliminated the stimulatory effect
same,augmentation of transport by insulin,[7]; at 5.0 and 23.0 mM glucose,~2 fold
same,translocation of GLUT-4 to the plasma membrane,[8],translocation of GLUT-4 to the plasma membrane
same,effect on GLUT-1 (blots with anti GLUT-1 antibody),[10],no effect
same,PKB phosphorylation,[9],"prominent, but transient phosphorylation"

# Source: patent US7812142B2, “Pentose derivatives as anti-hyperglycemic drugs” (Yissum Research Development Company of the Hebrew …, priority 2002, dated 2010)
